From PubChem BioAssay (NCI)
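Values below derive from 48-hour exposures of cells grown in 96-well plates, with endpoints linearly interpolated between the two concentrations bracketing the appropriate inhibition level. At the TGI there is no net growth.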

Legend:
Test in all cases: inhibition of tumour cell growth, NCI panel, 48 h
EKVX NSCLC = test system: EKVX NSCLC
SK-MEL-28 melanoma = test system: SK-MEL-28 melanoma
MALME-3M melanoma = test system: MALME-3M melanoma
ACHN renal = test system: ACHN renal
DU-145 prostate = test system: DU-145 prostate
UACC-257 melanoma = test system: UACC-257 melanoma
HCT-116 colon = test system: HCT-116 colon
OVCAR-8 ovarian = test system: OVCAR-8 ovarian
RXF 393 renal = test system: RXF 393 renal
COLO 205 colon = test system: COLO 205 colon
NCI/ADR-RES ovarian = test system: NCI/ADR-RES ovarian
KM12 colon = test system: KM12 colon
SR leukemia = test system: SR leukemia
MDA-N = test system: MDA-N
K-562 leukemia = test system: K-562 leukemia

Row | Compound | TGI (EKVX NSCLC) [µM] | TGI (SK-MEL-28 melanoma) [µM] | TGI (MALME-3M melanoma) [µM] | TGI (ACHN renal) [µM] | TGI (DU-145 prostate) [µM] | TGI (UACC-257 melanoma) [µM] | TGI (HCT-116 colon) [µM] | TGI (OVCAR-8 ovarian) [µM] | TGI (RXF 393 renal) [µM] | TGI (COLO 205 colon) [µM] | TGI (NCI/ADR-RES ovarian) [µM] | TGI (KM12 colon) [µM] | TGI (SR leukemia) [µM] | TGI (MDA-N) [µM] | TGI (K-562 leukemia) [µM]
1 | CC(=O)OCC1OC(SC2=NC(=O)/C(=C/c3ccccc3)S2)C(OC(C)=O)C(OC(C)=O)C1OC(C)=O (configuration not stated) | 70.4 | > 100 | 70.5 | > 100 | > 100 | > 100 | > 100 | 31.7 | 67.6 | > 100 | 84 | > 100 | 51.5 | > 100 | 
2 | NC1=Nc2ccccc2Sc2nc3ccccc3n21 |  |  | > 100 | > 100 | > 100 | > 100 | 32.8 |  | > 100 | > 100 | > 100 | > 100 | > 100 | > 100 | > 100
3 | O=C1CC(C(COCc2ccccc2)OCc2ccccc2)CC(=O)N1 (configuration not stated) | > 100 | > 100 | > 100 | > 100 | > 100 | > 100 | > 100 | > 100 |  |  |  | > 100 | > 100 | > 100 | > 100
4 | C[C@]12CC[C@H](O)CC1=CC[C@@H]1[C@@H]2CC[C@]2(C)C(=O)/C(=C/c3ccc([N+](=O)[O-])cc3)C[C@@H]12 | 24.9 | 74.7 | 53.7 | 33.4 | 44.9 | 56 | 62.3 | 12.3 | 25 |  | 61.1 | > 100 | > 100 | > 100 | > 100
5 | O=C(NNS(=O)(=O)c1ccccc1)c1csc(NC(=S)NC2CCCCC2)n1 | > 100 |  | > 100 | 93.6 | 81.5 | 53.8 | 36 | > 100 |  | 43.3 | > 100 | > 100 | > 100 | 40.2 | > 100
6 | O=S1(=O)OCCCOS(=O)(=O)C1(Br)Br | > 100 | > 100 | > 100 | > 100 | > 100 | > 100 | > 100 | > 100 | > 100 | > 100 | > 100 | > 100 | > 100 | > 100 | 
7 | CN(C)CC1CCCc2ccccc2C1=O (configuration not stated) | 3.4 | 13 | 3.62 | 3.3 | 10.7 | 18.9 | 3.26 | 4.29 | 11.7 | 12.5 | 17.5 | 4.69 | > 100 | 3.07 | 
8 | C=CCOCn1ccc(N)nc1=O | > 100 | > 100 | > 100 |  | > 100 | > 100 | > 100 | > 100 |  | > 100 |  | > 100 | > 100 | > 100 | > 100
9 | CN(/N=C/c1ccc(Cl)cc1)C1=NCCCCN1 | > 100 |  | > 100 | > 100 | > 100 | > 100 | > 100 | > 100 |  | > 100 | > 100 | > 100 | > 100 | > 100 | > 100
10 | O=c1[nH]c(=O)n(COCc2ccccc2)c2ccccc12 | > 100 | > 100 |  | > 100 | > 100 | > 100 | > 100 | > 100 | 94.5 | > 100 | 92.7 | > 100 | > 100 | > 100 | > 100
11 | CC1(C)CN=CC(C)(OCc2ccccc2)C(=O)NC(C)(C)CN=CC(C)(OCc2ccccc2)C(=O)N1 (configuration not stated) | > 10 | > 10 |  | > 10 | > 10 | > 10 | > 10 | > 10 | > 10 |  |  | > 10 | > 10 | > 10 | > 10
12 | O=C1CCCCN1C(=O)c1ccc([N+](=O)[O-])cc1 | > 100 | > 100 | > 100 | > 100 | > 100 | > 100 | > 100 | > 100 | > 100 |  | > 100 | > 100 | > 100 | > 100 | > 100
13 | CN1C=COC1N=C1CCCCC1 (configuration not stated) | > 100 | > 100 | > 100 | > 100 | > 100 |  | > 100 | > 100 | > 100 | > 100 | > 100 | > 100 | > 100 | > 100 | > 100
14 | C1=CN2C[n+]3ccc4ccccc4c3N=C2c2ccccc21 | 38.8 |  | 3.46 | 70.5 | 25.2 | 20.7 | > 100 | 24.9 |  | 4.26 | > 100 | 10.7 | 4.66 | 7.59 | 12.5
15 | CC1C(C#N)(C#N)C(C#N)=C(N)C1(C)[N+](=O)[O-] (configuration not stated) | 42.6 |  | > 100 | > 100 | > 100 | > 100 | > 100 | > 100 | > 100 | > 100 | > 100 | > 100 | > 100 | > 100 | > 100
16 | O=c1c2cc(I)ccc2nc(SCc2nnco2)n1Cc1ccccc1 | > 100 | > 100 |  | > 100 | > 100 | > 100 | > 100 | > 100 | > 100 | > 100 | > 100 | > 100 | > 100 | > 100 | 
